Tests used:
[1] = Metabolism in human hepatic S9
Method: (§1) A typical incubation contained rat, mouse, dog or human liver microsomes (0.4-0.5 mg of protein), 100 mM potassium phosphate buffer (pH7.4), 50 μM test compound, an NADPH-generating system consisting of 0.5 mM NADP^+, 0.5 mM glucose-6-phosphate, 1 IU/mL glucose-6-phosphate dehydrogenase, 1 mg/mL diethylenetriaminepentaaceticacid (DETAPAC), and 3 mM MgCl2 in a final incubation volume of 0.25 mL. […] After centrifugation at 3000 rpm for 5 min, the organic fraction was collected, the solvent was removed with a stream of argon and the residue was reconstituted in 125 μL of MeOH and 125 μL H2O, mixed thoroughly, centrifuged at 13,000 rpm for 5 min and analyzed by high performance liquid chromatography. Samples were run on a Hitachi D-7000 HPLC system using a L-7100 analytical pump, L-7400 UV-Visible variable wavelength detector, and L-7600 automatic sample injector. […] Disappearance of the analyte was monitored over time. A plot of the area under the curve for the normalized analyte versus time afforded the half-life values and kapp.
(§2) Microsomes contain CYPs and FMO metabolic enzymes. S9 contains soluble enzymes (i.e., aldehyde oxidase, MAO, etc.).

[2] = Metabolism in dog hepatic S9; type: in vitro ADME; conditions: 0.5 mg of protein
Method: as §1, §2

[3] = Metabolism in mouse hepatic S9
Method: as §1, §2

[4] = Metabolism in rat hepatic S9; type: in vitro ADME; conditions: 0.5 mg of protein
Method: as §1, §2

[5] = biological target: T1, hERG potassium channel (IKr) (Homo sapiens, UniProt Q12809); assay: Automated patch clamp, hERG (IKr) expressed in CHO cells; conditions: hERG (IKr) IC50, CHO cells, Example 2
[6] = system: normal human induced pluripotent stem cell (hiPSC) cardiomyocyte
[7] = Solubility (water; 10:30:60% DMSO:PEG400:water vehicle); type: physicochemical
[8] = biological target: T1, hERG potassium channel (IKr)
[9] = system: cardiomyocytes derived from hiPSCs from a LQTS3 patient
[10] = system: cardiomyocytes derived from hiPSCs from a LQTS3 patient; assay: cells; conditions: Homo sapiens, Cardiomyocyte, read-out: LQT-IC50 (uM)-Shortening
[11] = system: Male BALBc mice; conditions: mice, i.p.; for tolerability: 30-100 mg/kg, 24 hr
Source text: Male BALBc mice (20-22 g) were used throughout these studies. The animals were maintained in a temperature-controlled room with 12-hr periods of light and darkness and had continuous access to water and animal food. […] Groups contained 2-4 animals.

[12] = biological target: Nav1.5 sodium channel, peak current (INaP) (Homo sapiens, UniProt Q14524, form not given); assay: in vitro; conditions: Peak Na+ (INaP) IC50
Method in brief: (§3)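 Conventional whole-cell patch clamp was performed on HEK293 cells transfected with Nav1.5 and plated on 0.1% gelatin-coated dishes. Values were reported as IC50 ± STD.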

[13] = biological target: Nav1.5 sodium channel transfected into HEK293 cells (Homo sapiens, UniProt Q14524); assay: in vitro; conditions: for DNap/NaL: ratio peak/late IC50, Example 2
Method in brief: as §3

[14] = Metabolic stability in human liver microsomes; type: in vitro ADME; conditions: human, liver microsomes, pH 7.4, 50 μM, NADPH-generating system, 37° C.; read-out: Liver Microsomes t1/2 Human
Method: as §1

[15] = Metabolic stability in rat liver microsomes; type: in vitro ADME; conditions: rat, liver microsomes, pH 7.4; 50 μM, NADPH-generating system, 37° C.; read-out: Liver Microsomes t1/2 Rat
Method: as §1

[16] = Metabolic stability in mouse liver microsomes; type: in vitro ADME; conditions: mouse, liver microsomes, pH 7.4; 50 μM, NADPH-generating system, 37° C.; read-out: Liver Microsomes t1/2 Mouse
Method: as §1

[17] = biological target: CYP3A4 (Homo sapiens, UniProt P08684); assay: Metabolism with highly purified CYP3A4 (HPLC); conditions: 3 pmol enzyme/incubation; 30 mins, 37° C.
[18] = biological target: T2, Human FMO1 (Homo sapiens, UniProt Q01740); assay: Metabolism with human FMO1 (nmol metabolism/incubation); conditions: 15 μg enzyme/incubation; 30 mins, 37° C.
T2 sequence (Q01740 1-532): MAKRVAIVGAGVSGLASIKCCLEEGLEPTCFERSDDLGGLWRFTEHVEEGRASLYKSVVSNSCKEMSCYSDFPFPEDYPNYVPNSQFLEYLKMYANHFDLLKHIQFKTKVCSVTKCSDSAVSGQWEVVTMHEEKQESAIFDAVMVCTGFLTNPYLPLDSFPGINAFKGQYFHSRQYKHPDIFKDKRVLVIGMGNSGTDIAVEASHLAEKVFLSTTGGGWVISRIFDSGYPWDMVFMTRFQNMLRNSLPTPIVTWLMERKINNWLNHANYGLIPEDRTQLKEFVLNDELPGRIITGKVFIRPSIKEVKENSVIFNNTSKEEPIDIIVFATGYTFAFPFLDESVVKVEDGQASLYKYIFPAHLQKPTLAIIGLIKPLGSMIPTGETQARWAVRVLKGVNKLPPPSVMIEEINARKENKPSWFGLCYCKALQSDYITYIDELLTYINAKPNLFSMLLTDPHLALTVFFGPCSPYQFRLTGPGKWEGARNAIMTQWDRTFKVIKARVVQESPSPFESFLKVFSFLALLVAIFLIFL

[19] = 0.4 mg protein/incubation, 30 mins, 37° C.

T1 sequence (Q12809 whole entry): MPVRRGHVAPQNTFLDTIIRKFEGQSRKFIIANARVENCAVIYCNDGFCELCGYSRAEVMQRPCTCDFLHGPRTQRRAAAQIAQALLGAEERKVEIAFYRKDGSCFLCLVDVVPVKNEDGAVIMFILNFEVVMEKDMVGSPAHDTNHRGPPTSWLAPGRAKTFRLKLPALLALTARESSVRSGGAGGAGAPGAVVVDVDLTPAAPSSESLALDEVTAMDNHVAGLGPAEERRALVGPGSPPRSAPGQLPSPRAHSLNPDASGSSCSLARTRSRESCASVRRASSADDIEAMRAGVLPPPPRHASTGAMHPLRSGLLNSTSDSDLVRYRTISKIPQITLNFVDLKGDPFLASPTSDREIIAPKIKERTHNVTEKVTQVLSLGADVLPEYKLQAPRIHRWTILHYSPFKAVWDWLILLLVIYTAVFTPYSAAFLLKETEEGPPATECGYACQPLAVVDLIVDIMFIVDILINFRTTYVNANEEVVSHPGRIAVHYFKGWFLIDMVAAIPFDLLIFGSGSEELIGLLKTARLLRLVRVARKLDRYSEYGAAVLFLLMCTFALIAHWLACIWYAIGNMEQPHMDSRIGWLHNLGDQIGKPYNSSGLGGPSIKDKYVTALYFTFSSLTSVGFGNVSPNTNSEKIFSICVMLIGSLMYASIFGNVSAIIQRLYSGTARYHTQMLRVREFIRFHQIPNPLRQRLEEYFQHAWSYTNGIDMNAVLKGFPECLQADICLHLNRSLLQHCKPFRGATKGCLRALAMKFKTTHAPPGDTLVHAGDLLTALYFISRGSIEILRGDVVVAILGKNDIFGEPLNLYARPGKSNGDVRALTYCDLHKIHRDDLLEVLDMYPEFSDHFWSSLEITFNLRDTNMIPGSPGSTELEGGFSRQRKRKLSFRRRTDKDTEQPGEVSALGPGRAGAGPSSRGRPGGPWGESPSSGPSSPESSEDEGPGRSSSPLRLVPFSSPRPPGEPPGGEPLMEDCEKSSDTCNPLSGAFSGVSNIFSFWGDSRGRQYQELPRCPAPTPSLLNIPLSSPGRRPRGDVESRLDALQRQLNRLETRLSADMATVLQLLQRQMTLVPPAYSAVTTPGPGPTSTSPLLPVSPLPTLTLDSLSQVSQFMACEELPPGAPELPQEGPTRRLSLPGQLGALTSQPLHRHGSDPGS
CYP3A4, sequence (P08684 whole entry): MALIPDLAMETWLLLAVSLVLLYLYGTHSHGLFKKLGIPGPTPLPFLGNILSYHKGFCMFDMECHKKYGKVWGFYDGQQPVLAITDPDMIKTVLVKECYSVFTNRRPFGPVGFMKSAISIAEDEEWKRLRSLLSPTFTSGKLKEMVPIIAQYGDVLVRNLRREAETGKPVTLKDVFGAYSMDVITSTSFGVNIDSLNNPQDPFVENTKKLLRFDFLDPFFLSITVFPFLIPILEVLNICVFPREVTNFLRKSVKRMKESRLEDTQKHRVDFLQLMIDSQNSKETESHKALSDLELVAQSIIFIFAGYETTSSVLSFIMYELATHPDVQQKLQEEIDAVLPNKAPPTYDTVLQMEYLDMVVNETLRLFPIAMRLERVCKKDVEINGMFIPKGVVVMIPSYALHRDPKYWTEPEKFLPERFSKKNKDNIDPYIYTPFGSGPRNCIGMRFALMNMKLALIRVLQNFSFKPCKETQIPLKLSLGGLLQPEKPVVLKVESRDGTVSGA

## NC(COc1ccccc1C(F)(F)F)c1ccccc1 (stereo not drawn) [drawing 308]
[1]; 0.5 mg of protein
  % Metabolism Human S9: 28.0 ± 7.4%
[2]
  % Metabolism Dog S9: 51.0 ± 19.1%
[3]; 0.5 mg of protein
  % Metabolism Mouse S9: 55.0 ± 22.4%
[4]
  % Metabolism Rat S9: 15.4 ± 10.5%

## Cc1ccncc1OCC(N)c1ccccc1.Cl (stereo not drawn) [Compound 88]
[5]
  IC50: 11.2 µM
[6]
  Cessation of Beating: None
[6]; APD, normal hiPSC cardiomyocytes
  WT-Fold Prolongation: 1.52
[7]
  solubility (in words): good solubility
[8]
  DKr/NaL: 10.7
  DNaP/Kr: 7.7
[9]
  LQT-Cessation Dose: None
[9]; LQT3 cardiomyocytes
  LQT-Fold Shortening: 1.287
[10]
  IC50: 12.8 µM
[11]; 200 mg/kg
  behavioral/toxic effects at 200 mg/kg: slight lethargy
[11]
  tolerability: well-tolerated
[12]
  IC50: 90.9 µM
[13]
  IC50: 1.04 µM
  DNap/NaL: 87.4

## COCCNC(COc1ccccc1C(F)(F)F)c1ccccc1.Cl (stereo not drawn) [Compound 105]
[5]
  IC50: 20.9 µM
[7]
  solubility (in words): good solubility
[8]
  DKr/NaL: 18.3
  DNaP/Kr: 2.11
[11]
  tolerability: well-tolerated
[12]
  IC50: 44.3 µM
[13]
  IC50: 1.14 µM
  DNap/NaL: 38.9

## Cc1ccccc1OCC(N)c1ccccc1 (stereo not drawn) [drawing 303]
[14]
  half-life at 50 μM: 2.35 h
[15]
  half-life at 50 μM: 7.92 h
[16]
  half-life at 50 μM: 3.47 h

## Cl.[2H]C(N)(COc1c(C)cccc1C)c1ccccc1 (stereo not drawn) [Compound 136]
[1]; [19]
  Human S-9, nmol metab./incub.: 1.4 nmol metab./incub.
[3]; [19]
  Mouse S-9, nmol metab./incub.: 1.4 nmol metab./incub.
[17]
  Human CYP3A4, nmol metab./incub.: 1.5 nmol metab./incub.
[18]
  Human FMO1, nmol metab./incub.: 0.06 nmol metab./incub.

Reference: US11492325B2, “Compounds as inhibitors of sodium channels” (Human BioMolecular Research Institute, priority 2016, dated 2022)
